The target in one assay is BTK (Homo sapiens, UniProt Q06187). Nature of the assay: Omnia assay for potency against BTK. In kind it is biochemical. The note with it: read-out: BTK Inhibition. An excerpt: (§1) The protocol below describes continuous-read kinase assays to measure inherent potency of compounds against active forms of EGFR (WT) and EGFR (T790M/L858R) enzymes. The mechanics of the assay platform are best described by the vendor (Invitrogen, Carlsbad, Calif.) on their website at the following URL: http://www.invitrogen.com/content.cfm?pageid=11338 or http://www.invitrogen.com/site/us/en/home/Products-and-Services/Applications/Drug-Discovery/Target-and-Lead-Identification-and-Validation/KinaseBiology/KB-Misc/Biochemical-Assays/Omnia-Kinase-Assays.html.
(§2) Briefly, 10× stocks of EGFR-WT (PV3872) from Invitrogen and EGFR-T790M/L858R (40350) from BPS Bioscience, San Diego, Calif., 1.13×ATP (AS001A) and appropriate Tyr-Sox conjugated peptide substrates (KCZI001) were prepared in 1× kinase reaction buffer consisting of 20 mM Tris, pH 7.5, 5 mM MgCl2, 1 mM EGTA, 5 mM β-glycerophosphate, 5% glycerol (10× stock, KB002A) and 0.2 mM DTT (DS001A). 5 μL of each enzyme were pre-incubated in a Corning (#3574) 384-well, white, non-binding surface microtiter plate (Corning, NY) for 30 min. at 27° C. with a 0.5 μL volume of 50% DMSO and serially diluted compounds prepared in 50% DMSO. Kinase reactions were started with the addition of 45 μL of the ATP/Tyr-Sox peptide substrate mix and monitored every 30-90 seconds for 60 minutes at λex360/λem485 in a Synergy^4 plate reader from BioTek (Winooski, Vt.). At the conclusion of each assay, progress curves from each well were examined for linear reaction kinetics and fit statistics (R^2, 95% confidence interval, absolute sum of squares). Initial velocity (0 minutes to ˜30 minutes) from each reaction was determined from the slope of a plot of relative fluorescence units vs time (minutes) and then plotted against inhibitor concentration to estimate IC50 from log [Inhibitor] vs Response, Variable Slope model in GraphPad Prism from GraphPad Software (San Diego, Calif.).
The Omnia Assay Protocol for potency assessment against BTK is performed in a substantially similar manner as that described in Example 25 above except that the modified BTK-optimized reagent conditions are: • [BTK]=5 nM, [ATP]=[…], [Y5-Sox]=[…] (ATP KMapp ˜[…]).

The target of the next assay is ErbB1 (Homo sapiens, UniProt P00533). Nature of the assay: Z'-LYTE biochemical assay, ErbB1 kinase inhibition. The note with it: @ 1 μM. As to the method:
Compounds of the present invention were assayed as inhibitors of one or more of ErbB1, ErbB2, and/or ErbB4 in a manner substantially similar to the method described by Invitrogen Corp (Invitrogen Corporation, 1600 Faraday Avenue, Carlsbad, Calif., CA; http://www.invitrogen.com/downloads/Z-LYTE_Brochure—1205.pdf) using the Z′-LYTE™ biochemical assay procedure or similar biochemical assay. The Z′-LYTE™ biochemical assay employs a fluorescence-based, coupled-enzyme format and is based on the differential sensitivity of phosphorylated and non-phosphorylated peptides to proteolytic cleavage.

The target in another assay is T1, EGFR (T790M/L858R) (Homo sapiens, UniProt P00533, L858R/T790M).
T1 construct: purchased BPS Bioscience 40350
Nature of the assay: Omnia continuous-read kinase assay, EGFR (T790M/L858R). In kind it is biochemical. The note with it: read-out: EGFR (T790M/L858R) inhibiton.
Source text: as §1, §2
(§3) The EGFR-WT- and EGFR T790M/L858R-modified optimized reagent conditions are: • [EGFR-WT]=5 nM, [ATP]=[…], [Y12-Sox]=[…]; and [EGFR-T790M/L858R]=3 nM, [ATP]=[…], [Y12-Sox]=[…].

The next assay has as its target T2, JAK3 (Homo sapiens, UniProt P52333).
T2 sequence (P52333 1-1124): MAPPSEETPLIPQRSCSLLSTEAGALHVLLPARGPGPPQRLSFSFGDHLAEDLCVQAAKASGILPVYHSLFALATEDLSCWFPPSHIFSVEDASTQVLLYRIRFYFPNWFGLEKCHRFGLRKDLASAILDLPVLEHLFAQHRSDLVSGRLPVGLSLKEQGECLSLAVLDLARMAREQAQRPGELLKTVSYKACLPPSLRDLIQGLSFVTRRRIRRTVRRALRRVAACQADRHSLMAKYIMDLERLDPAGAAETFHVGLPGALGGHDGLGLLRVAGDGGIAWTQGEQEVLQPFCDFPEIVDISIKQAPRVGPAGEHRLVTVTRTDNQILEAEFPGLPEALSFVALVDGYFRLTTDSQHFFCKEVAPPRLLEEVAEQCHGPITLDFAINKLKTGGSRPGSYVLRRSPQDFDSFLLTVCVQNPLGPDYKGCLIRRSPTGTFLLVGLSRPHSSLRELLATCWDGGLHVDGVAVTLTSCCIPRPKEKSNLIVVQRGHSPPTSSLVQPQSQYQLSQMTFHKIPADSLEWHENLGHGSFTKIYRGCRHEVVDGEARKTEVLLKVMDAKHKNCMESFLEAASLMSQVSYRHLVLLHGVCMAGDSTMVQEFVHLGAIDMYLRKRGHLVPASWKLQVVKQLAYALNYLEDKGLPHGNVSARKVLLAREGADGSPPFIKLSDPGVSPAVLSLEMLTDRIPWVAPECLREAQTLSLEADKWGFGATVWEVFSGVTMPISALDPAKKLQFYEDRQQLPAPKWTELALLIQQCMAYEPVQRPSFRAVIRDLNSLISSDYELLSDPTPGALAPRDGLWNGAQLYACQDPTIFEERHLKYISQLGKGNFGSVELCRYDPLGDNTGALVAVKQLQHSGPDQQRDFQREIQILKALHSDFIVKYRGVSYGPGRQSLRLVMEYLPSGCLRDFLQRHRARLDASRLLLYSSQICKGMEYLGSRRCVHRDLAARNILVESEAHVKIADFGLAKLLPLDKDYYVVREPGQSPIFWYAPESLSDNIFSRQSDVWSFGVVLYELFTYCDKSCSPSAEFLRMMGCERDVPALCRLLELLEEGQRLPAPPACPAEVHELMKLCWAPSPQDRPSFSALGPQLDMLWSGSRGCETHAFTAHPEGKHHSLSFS
Nature of the assay: Omnia assay for potency against JAK3. Type of assay: biochemical. The note with it: read-out: JAK3 Inhibition.
Source text: as §1, §2
The Omnia Assay Protocol for potency assessment against JAK3 is performed in a substantially similar manner as that described in Example 25 above except that the modified JAK3-optimized reagent conditions are: • [JAK3]=5 nM, [ATP]=5 μM, [Y12-Sox]=5 μM (ATP KMapp ˜[…]).

Another assay addresses T3, EGFR (WT) (Homo sapiens, UniProt P00533).
T3 construct: purchased Invitrogen PV3872
Put plainly: Omnia continuous-read kinase assay, EGFR (WT). Type of assay: biochemical. The note with it: read-out: EGFR inhibtion.
Source text: as §1, §2, §3

pIC50: −log10 of the molar value.

In patent US9296704B2, “Substituted pyrimidines as protein kinase inhibitors” (CELGENE AVILOMICS RESEARCH, INC., priority 2007, dated 2016) one finds IC50 and inhibition data, which are given here for 18 compounds.

T3 sequence (P00533 25-1210): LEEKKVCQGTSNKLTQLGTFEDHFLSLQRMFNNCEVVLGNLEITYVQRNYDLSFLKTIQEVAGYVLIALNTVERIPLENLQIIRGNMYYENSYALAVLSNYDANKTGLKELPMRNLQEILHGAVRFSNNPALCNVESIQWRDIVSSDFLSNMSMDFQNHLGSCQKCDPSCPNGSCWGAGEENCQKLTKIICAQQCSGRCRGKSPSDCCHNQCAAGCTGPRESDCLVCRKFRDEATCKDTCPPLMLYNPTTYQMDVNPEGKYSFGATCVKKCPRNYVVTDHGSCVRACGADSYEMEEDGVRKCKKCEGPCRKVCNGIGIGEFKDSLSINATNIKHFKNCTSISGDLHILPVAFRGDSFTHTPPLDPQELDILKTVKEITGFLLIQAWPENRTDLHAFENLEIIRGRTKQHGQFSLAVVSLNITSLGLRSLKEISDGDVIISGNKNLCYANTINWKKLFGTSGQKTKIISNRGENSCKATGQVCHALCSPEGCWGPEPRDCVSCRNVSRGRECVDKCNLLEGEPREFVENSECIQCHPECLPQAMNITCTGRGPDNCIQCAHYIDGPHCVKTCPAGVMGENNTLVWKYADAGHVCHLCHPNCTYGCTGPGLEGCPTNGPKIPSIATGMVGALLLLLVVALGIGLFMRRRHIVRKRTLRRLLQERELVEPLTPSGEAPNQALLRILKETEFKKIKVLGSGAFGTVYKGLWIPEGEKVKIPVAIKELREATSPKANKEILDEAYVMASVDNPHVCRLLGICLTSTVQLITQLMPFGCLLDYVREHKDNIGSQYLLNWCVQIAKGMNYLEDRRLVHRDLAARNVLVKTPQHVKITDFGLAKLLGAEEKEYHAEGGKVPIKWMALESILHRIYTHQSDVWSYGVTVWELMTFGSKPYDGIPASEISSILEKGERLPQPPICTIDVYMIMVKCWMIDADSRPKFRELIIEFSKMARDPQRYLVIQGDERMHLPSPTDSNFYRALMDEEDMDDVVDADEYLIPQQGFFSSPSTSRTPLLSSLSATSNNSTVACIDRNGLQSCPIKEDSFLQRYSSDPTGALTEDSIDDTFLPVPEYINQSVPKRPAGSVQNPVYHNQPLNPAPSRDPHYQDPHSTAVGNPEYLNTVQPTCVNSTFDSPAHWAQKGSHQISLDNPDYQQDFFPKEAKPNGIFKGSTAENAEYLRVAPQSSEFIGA
T1 sequence (P00533 25-1210 T790M/L858R): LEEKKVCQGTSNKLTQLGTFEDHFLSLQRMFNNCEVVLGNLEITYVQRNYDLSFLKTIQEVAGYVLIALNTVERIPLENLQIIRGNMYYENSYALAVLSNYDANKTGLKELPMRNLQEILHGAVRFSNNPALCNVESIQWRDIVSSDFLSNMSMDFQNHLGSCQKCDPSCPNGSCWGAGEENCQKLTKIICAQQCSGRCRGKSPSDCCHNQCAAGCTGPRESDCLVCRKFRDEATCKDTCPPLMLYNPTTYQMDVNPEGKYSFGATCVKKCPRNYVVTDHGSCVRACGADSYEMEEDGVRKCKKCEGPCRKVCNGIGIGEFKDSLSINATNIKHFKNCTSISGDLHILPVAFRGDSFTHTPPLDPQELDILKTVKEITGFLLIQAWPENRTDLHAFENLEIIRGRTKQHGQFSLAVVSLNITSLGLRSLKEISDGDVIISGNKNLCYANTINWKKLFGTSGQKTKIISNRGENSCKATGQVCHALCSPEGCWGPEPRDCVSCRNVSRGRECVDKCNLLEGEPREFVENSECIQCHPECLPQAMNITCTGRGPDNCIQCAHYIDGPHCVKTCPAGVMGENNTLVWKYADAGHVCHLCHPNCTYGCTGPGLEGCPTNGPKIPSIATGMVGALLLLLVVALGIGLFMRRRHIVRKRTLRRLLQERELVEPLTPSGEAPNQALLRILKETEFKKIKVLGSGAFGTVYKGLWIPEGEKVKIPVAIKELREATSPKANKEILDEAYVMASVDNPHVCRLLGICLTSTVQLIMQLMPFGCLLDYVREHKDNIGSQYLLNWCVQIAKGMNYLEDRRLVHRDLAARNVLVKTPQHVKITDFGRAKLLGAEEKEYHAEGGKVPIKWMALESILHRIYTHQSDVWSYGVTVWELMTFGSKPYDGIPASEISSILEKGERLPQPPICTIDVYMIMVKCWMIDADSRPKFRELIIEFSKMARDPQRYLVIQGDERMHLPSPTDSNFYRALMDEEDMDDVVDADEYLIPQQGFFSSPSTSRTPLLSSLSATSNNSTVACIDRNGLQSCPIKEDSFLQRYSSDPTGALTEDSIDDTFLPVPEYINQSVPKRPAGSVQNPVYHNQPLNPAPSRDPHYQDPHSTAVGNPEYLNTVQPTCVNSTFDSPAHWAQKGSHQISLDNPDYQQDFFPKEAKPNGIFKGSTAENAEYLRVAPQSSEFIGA
Sequence of BTK (Q06187 whole entry): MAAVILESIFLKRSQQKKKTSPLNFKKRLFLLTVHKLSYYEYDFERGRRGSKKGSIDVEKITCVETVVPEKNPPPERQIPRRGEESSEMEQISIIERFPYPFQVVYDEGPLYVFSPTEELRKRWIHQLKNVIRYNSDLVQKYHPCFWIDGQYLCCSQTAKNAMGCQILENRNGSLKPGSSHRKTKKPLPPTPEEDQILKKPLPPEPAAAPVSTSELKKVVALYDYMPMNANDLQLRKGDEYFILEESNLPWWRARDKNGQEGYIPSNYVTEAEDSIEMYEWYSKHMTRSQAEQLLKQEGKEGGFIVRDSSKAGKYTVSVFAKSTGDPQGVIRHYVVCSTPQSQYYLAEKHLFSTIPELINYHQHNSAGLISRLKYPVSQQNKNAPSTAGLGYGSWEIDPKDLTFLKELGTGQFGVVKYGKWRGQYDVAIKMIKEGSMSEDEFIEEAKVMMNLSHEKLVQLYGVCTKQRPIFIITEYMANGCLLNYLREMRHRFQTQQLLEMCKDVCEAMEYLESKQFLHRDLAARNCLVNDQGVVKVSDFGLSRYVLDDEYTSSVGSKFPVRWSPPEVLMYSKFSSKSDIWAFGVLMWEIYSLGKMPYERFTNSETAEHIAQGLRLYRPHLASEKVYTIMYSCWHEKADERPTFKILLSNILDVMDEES
Sequence of ErbB1 (P00533 25-1210): as the sequence (P00533 25-1210) above

In the case of `C#Cc1cccc(Nc2cc(Nc3cccc(C#C)c3)ncn2)c1` [I-11, N^4,N^6-bis(3-ethynylphenyl)pyrimidine-4,6-diamine], the pIC50 at BTK is at most 5.00; at EGFR (T790M/L858R), at most 5.00; on JAK3, at most 5.00; on EGFR (WT), 7.00 to 8.00. The inhibition at 1 µM against ErbB1 stood at 79%.

In the case of `CN(C)C/C=C/C(=O)Nc1cccc(Nc2cc(Nc3ccc(OCc4cccc(F)c4)c(Cl)c3)ncn2)c1` [I-46], the pIC50 on BTK was 6.00 to 7.00; at EGFR (T790M/L858R), at least 8.00; on JAK3 it was 5.00 to 6.00; on EGFR (WT), at least 8.00.

As for `N#CC1(C(=O)Nc2cccc(Nc3cc(Nc4ccc(F)c(Cl)c4)ncn3)c2)CC1` [I-47, N-[3-(6-{3-chloro-4-fluorophenylamino}pyrimidin-4-yl)amino]phenyl-1-cyanocyclopropanecarboxamide], the pIC50 on BTK was at most 5.00; at EGFR (T790M/L858R), at most 5.00; at JAK3, at most 5.00; at EGFR (WT) it was at least 8.00.

With `CN(C)C/C=C/C(=O)N(C)c1cccc(Nc2cc(Nc3ccc(F)c(Cl)c3)ncn2)c1` [I-48], the pIC50 is 7.00 to 8.00 on BTK, 6.00 to 7.00 at EGFR (T790M/L858R), at most 5.00 at JAK3 and 6.00 to 7.00 at EGFR (WT).

As for `O=C(CCl)Nc1cccc(Nc2cc(Nc3ccc(F)c(Cl)c3)ncn2)c1` [I-49, 2-chloro-N-{3-[6-(3-chloro-4-fluorophenylamino)-pyrimidin-4-ylamino]-phenyl}-acetamide], the pIC50 on BTK, at EGFR (T790M/L858R), on JAK3 and on EGFR (WT) was at least 8.00 each time.

As to `CC(Cl)C(=O)Nc1cccc(Nc2cc(Nc3ccc(F)c(Cl)c3)ncn2)c1` (stereo not shown) [I-50)], the values for the pIC50 on EGFR (T790M/L858R) and at EGFR (WT) were 7.00 to 8.00 and at least 8.00, respectively.

With `O=C(Nc1cccc(Nc2cc(Nc3ccc(F)c(Cl)c3)ncn2)c1)C1(C(F)(F)F)CC1` [I-51, N-[3-(6-{3-chloro-4-fluorophenyl}aminopyrimidin-4-yl)aminophenyl]-1-trifluoromethylcyclopropanecarboxamide], the pIC50 on BTK was at most 5.00; on EGFR (T790M/L858R), 5.00 to 6.00; at JAK3, at most 5.00; at EGFR (WT), at least 8.00.

For `C=CC(=O)N(C)c1cccc(Nc2cc(Nc3ccc(F)c(Cl)c3)ncn2)c1` [I-53, N-3-[6-(3-chloro-4-fluorophenylamino)pyrimidin-4-yl]aminophenyl-N-methyl-2-propenamide], the pIC50 at BTK is 7.00 to 8.00; at EGFR (T790M/L858R), 6.00 to 7.00; on JAK3, 6.00 to 7.00; at EGFR (WT), 7.00 to 8.00.

As to `Cc1ccc(NC(=O)/C=C/CN(C)C)cc1Nc1cc(Nc2ccc(F)c(Cl)c2)ncn1` [I-54, (E)-N-[3-(6-{3-Chloro-4-fluorophenyl}amino-pyrimidin-4-ylamino)-4-methylphenyl]-4-(dimethylamino)but-2-enamide], the pIC50 at BTK is 6.00 to 7.00; at EGFR (T790M/L858R), at least 8.00; at JAK3, 5.00 to 6.00; on EGFR (WT), at least 8.00.

For the compound `C=CC(=O)Nc1cccc(Nc2cc(Nc3ccc(Br)cc3F)ncn2)c1` [I-55], the pIC50 on BTK was 7.00 to 8.00; at EGFR (T790M/L858R), at least 8.00; at JAK3, 7.00 to 8.00; on EGFR (WT), at least 8.00.

Take `O=C(/C=C/CN1CCCC1)Nc1cccc(Nc2cc(Nc3ccc(F)c(Cl)c3)ncn2)c1` [I-56]: the pIC50 at BTK is 7.00 to 8.00; at EGFR (T790M/L858R), at least 8.00; at JAK3, 7.00 to 8.00; at EGFR (WT) it was at least 8.00.

Consider `Cc1cccc(Nc2cc(Nc3cccc(NC(=O)/C=C/CN4CCNCC4)c3)ncn2)c1` [I-57, (E)-N-3-(6-[3-methylphenyl]aminopyrimidin-4-yl)aminophenyl-4-piperazinyl-2-butenamide], for which the results for the pIC50 at BTK, on EGFR (T790M/L858R) and on JAK3 were 5.00 to 6.00, 6.00 to 7.00 and at most 5.00, respectively.

On to `C#CCN(C)C/C=C/C(=O)Nc1cccc(Nc2cc(Nc3cccc(C)c3)ncn2)c1` [I-58, (E)-N-3-(6-[3-methylphenyl]aminopyrimidin-4-yl)aminophenyl-4-(methyl-prop-2-ynyl)amino-2-butenamide], for which the pIC50 was 5.00 to 6.00 at BTK, 6.00 to 7.00 on EGFR (T790M/L858R) and 6.00 to 7.00 at JAK3.

For the compound `COc1ccc(NC(=O)/C=C/CN(C)C)cc1Nc1cc(Nc2ccc(F)c(Cl)c2)ncn1` [I-59], the pIC50 at BTK was 6.00 to 7.00; at EGFR (T790M/L858R) it was at least 8.00; at JAK3 it was 5.00 to 6.00; at EGFR (WT) it was at least 8.00.

In the case of `CC(=O)N1CCN(C/C=C/C(=O)Nc2cccc(Nc3cc(Nc4cccc(C)c4)ncn3)c2)CC1` [I-60, (E)-N-3-(6-[3-methylphenylamino]-pyrimidin-4-yl)aminophenyl-4-(4-acetylpiperazin-1yl)-2-butenamide], the pIC50 on BTK was 5.00 to 6.00; at EGFR (T790M/L858R), 6.00 to 7.00; at JAK3, 5.00 to 6.00; on EGFR (WT), 5.00 to 6.00.

`[2H]C([2H])([2H])N(C/C=C/C(=O)Nc1cccc(Nc2cc(Nc3ccc(F)c(Cl)c3)ncn2)c1)C([2H])([2H])[2H]` [I-61]: the pIC50 at BTK is 7.00 to 8.00; on EGFR (T790M/L858R) it was at least 8.00; at JAK3, 7.00 to 8.00.

Take `C=CC(=O)Nc1cccc(Nc2cc(Nc3ccccc3)ncn2)c1` [I-67, N-3-[6-(phenylamino)-pyrimidin-4-yl]aminophenylpropenamide]: the pIC50 at BTK is 7.00 to 8.00; at EGFR (T790M/L858R), at least 8.00; at JAK3 it was at least 8.00; on EGFR (WT), at least 8.00.

On to `C=CC(=O)N1CCCC(Nc2cc(Nc3ccc(Oc4ccccc4)cc3)ncn2)C1` (stereo not shown) [I-86, 1-(3-(6-(4-phenoxyphenylamino)pyrimidin-4-ylamino)piperidin-1-yl)prop-2-en-1one], for which the pIC50 is 7.00 to 8.00 at BTK, at most 5.00 at JAK3 and 7.00 to 8.00 at EGFR (WT).

One may read the inhibition as the share of the control response that was lost under treatment. Read a low inhibition as little suppression.
